Results from PMC4368200, “Triclabendazole Sulfoxide Causes Stage-Dependent Embryolethality in Zebrafish and Mouse In Vitro” (PLoS ONE, 2015).
Several values for one entry are separate records, joined by “and”; a condition that tells them apart may be missing. Identical values can stand only once. Like-named read-outs stand apart in the source and are kept apart here. Marks after values point to notes of the source that are not given here.

How the values were obtained:
[1] = tested on: rat embryos explanted at GD 9.5; assay: Postimplantation whole embryo culture (postWEC); design: species or system Sprague Dawley rats; key to Yolk sac circulation (median): 1 = few/abnormal vessels, 2 = delayed, 3 = complete vascularization; key to Morphological score: sum of structure scores; higher = more advanced differentiation; conditions: for Crown-rump length / Morphological score / Somites number / Yolk sac circulation (median) / Dysmorphogenic embryos: 48 h
Procedure: Nulliparous female rats, which were checked to be in the oestrus phase of the oestrous cycle, were housed with adult males (1:1) for 4 h, considering 2 h of light and 2 h of darkness. Mating was confirmed by the presence of sperm in vaginal smear, and the following 24 h were considered as gestational day 0 (GD 0).
Rat embryos were explanted and evaluated as described before with some variations. Briefly, embryos were explanted at GD 9.5 under sterile conditions. Two embryos were incorporated in flasks filled with 3.5 mL of culture medium which contained 20% of rat serum and 80% of serum mixture (Biochrom AG; Berlin, Germany). TCBZ, TCBZSO, ABZ and ABZSO were dissolved in dimethyl sulfoxide (DMSO; Sigma Aldrich Spain) and added to the culture medium to a final DMSO concentration of 0.1%. Culture flasks were oxygenated at the beginning of the culture with a gas mixture containing 12% O2 and after 38 h with a gas mixture containing 50% O2. Embryos were cultured at a temperature of 38°C, under rotation at a speed of 25 rpm (Noria R, Ovan Spain) for 48 h. After this period, embryos presenting yolk sac circulation and heartbeat were considered alive and were selected for further evaluation. The yolk sac circulation was evaluated according to the level of formation of blood vessels, giving a score of 1 in the cases in which few vessels were observed or the vascularization was abnormal, a score of 2 when a delay in vascularization was observed and 3 for complete vascularization, as previously described in [35]. Growth evaluation was assessed by crown-rump length and differentiation was evaluated by counting the number of somites and the morphological score. This score is the sum of the scores given to several embryonic structures depending on their differentiation stage, corresponding higher values with higher stages of differentiation. Furthermore, the percentage of dysmorphogenesis was calculated according to [36].
For the postWEC experiments, the selected concentrations were 140 μM, 278 μM and 556 μM for TCBZ and 267 μM, 666 μM and 932 μM for TCBZSO. The tested concentrations for ABZ analysis were 0.4 μM, 1.1 μM and 1.9 μM and for ABZSO were 3.4 μM, 9 μM, 12 μM, 14 μM and 16 μM.

[2] = reviewed and transformed to μM by 16; cited from earlier work
[3] = tested on: zebrafish embryos; assay: Zebrafish embryo test (ZFET); assay type: in vivo, Danio rerio; conditions: for Dysmorphogenic embryos / Morphological score: 50 hpf
Procedure: The day before the test, adult male and female zebrafish were transferred (1:1) to breeding tanks (Aquaneering, San Diego, California). Artificial plants and marbles were used as spawning substrate. Spawning and fertilization took place within 30 min after the onset of light in the morning. Eggs were collected and extensively cleaned with ISO-standard 7346 water diluted 1:5 using deionized water. Fertilized eggs were selected under a dissection stereomicroscope (Motic SMZ168, Motic China group, LTD., China). The eggs presenting overt anomalies like asymmetries, formation of vesicles or damaged membranes were discarded.
Exposure and evaluation of eggs was performed as described before with slight variations. At 2 hours post-fertilization (hpf) fertilized eggs were selected and transferred to 6-well plates (Greiner Bio-one, Germany). Ten embryos were randomly distributed into wells and filled with 5 mL of freshly prepared test solutions. TCBZ, TCBZSO, ABZ and ABZSO were dissolved in DMSO and subsequently diluted in 0.3x Danieau’s buffer to a final DMSO concentration of 0.05% (v/v). Embryos were incubated at 26 ± 1°C with a dark-light cycle of 10–14 h for 48 h. Embryolethality was determined at 8 hpf on the basis of egg coagulation, at 26 hpf by the absence of tail detachment or somites formation, and at 50 hpf by the absence of heartbeat. Developmental and teratogenic effects were assessed at 50 hpf by the total morphological score described in [32].
The working concentrations for ZFET experiments were 0.1 μM, 0.5 μM, 1 μM, 2.5 μM and 5 μM for TCBZ studies and 0.5 μM, 1 μM, 2.5 μM, 5 μM, 10 μM and 50 μM for TCBZSO. The experiments with ABZ were performed including concentrations of 0.025 μM, 0.05 μM, 0.1 μM, 0.3 μM and 0.5 μM and for ABZSO they included 1 μM, 6 μM, 12 μM, 25 μM and 50 μM.

[4] = tested on: zebrafish embryos; conditions: cited from earlier work
[5] = tested on: rat whole embryo culture; design: method as in PMID 22652462; conditions: ref 16; cited from earlier work

SMILES: CCC[S+]([O-])c1ccc2[nH]c(NC(=O)OC)nc2c1 (stereo not shown) [ABZSO, albendazole sulfoxide]
- Crown-rump length ([1]; 3.4 μM): 3.6 ± 0.2 mm
- Morphological score ([1]; 3.4 μM): 38.5 ± 2.1
- Somites number ([1]; 3.4 μM): 26.9 ± 1.6
- Yolk sac circulation (median) ([1]; 3.4 μM): 3.0
- Frequency of dysmorphogenesis: Branchial bars ([1]; 9 µM): 23.1%
- Frequency of dysmorphogenesis: Caudal part ([1]; 9 µM): 7.7%
- Frequency of dysmorphogenesis: Flexion ([1]; 9 µM): 7.7%
- Frequency of dysmorphogenesis: Heart ([1]; 9 µM): 7.7%
- Frequency of dysmorphogenesis: Subcutaneous blisters ([1]; 9 µM): 30.8%
- Frequency of dysmorphogenesis: Yolk sac ([1]; 9 µM): 7.7%
- Crown-rump length ([1]; 9 μM): 3.4 ± 0.3 mm
- Dysmorphogenic embryos ([1]; 9 μM): 30.8 ^* %
- Morphological score ([1]; 9 μM): 35.8 ± 5.2
- Somites number ([1]; 9 μM): 25.0 ± 2.8
- Yolk sac circulation (median) ([1]; 9 μM): 3.0
- Frequency of dysmorphogenesis: Branchial bars ([1]; 12 µM): 10%
- Frequency of dysmorphogenesis: Head ([1]; 12 µM): 40%
- Frequency of dysmorphogenesis: Subcutaneous blisters ([1]; 12 µM): 40%
- Crown-rump length ([1]; 12 μM): 3.6 ± 0.2 mm
- Dysmorphogenic embryos ([1]; 12 μM): 40 ^* %
- Morphological score ([1]; 12 μM): 38.6 ± 1.2
- Somites number ([1]; 12 μM): 25.5 ± 2.0
- Yolk sac circulation (median) ([1]; 12 μM): 3.0
- Frequency of dysmorphogenesis: Branchial bars ([1]; 14 µM): 63.6%
- Frequency of dysmorphogenesis: Caudal part ([1]; 14 µM): 36.4%
- Frequency of dysmorphogenesis: Flexion ([1]; 14 µM): 9.1%
- Frequency of dysmorphogenesis: Head ([1]; 14 µM): 36.4%
- Frequency of dysmorphogenesis: Optic vesicles ([1]; 14 µM): 9.1%
- Frequency of dysmorphogenesis: Otic vesicles ([1]; 14 µM): 36.4%
- Frequency of dysmorphogenesis: Subcutaneous blisters ([1]; 14 µM): 54.5%
- Frequency of dysmorphogenesis: Yolk sac ([1]; 14 µM): 18.2%
- Crown-rump length ([1]; 14 μM): 3.4 ± 0.2 mm
- Dysmorphogenic embryos ([1]; 14 μM): 72.7 ^* %
- Morphological score ([1]; 14 μM): 29.7 ± 6.6
- Somites number ([1]; 14 μM): 22.9 ± 1.6
- Yolk sac circulation (median) ([1]; 14 μM): 2.0 ^*
- Frequency of dysmorphogenesis: Branchial bars ([1]; 16 µM): 100%
- Frequency of dysmorphogenesis: Caudal part ([1]; 16 µM): 72.7%
- Frequency of dysmorphogenesis: Flexion ([1]; 16 µM): 63.6%
- Frequency of dysmorphogenesis: Head ([1]; 16 µM): 72.7%
- Frequency of dysmorphogenesis: Heart ([1]; 16 µM): 45.5%
- Frequency of dysmorphogenesis: Limbs ([1]; 16 µM): 18.2%
- Frequency of dysmorphogenesis: Optic vesicles ([1]; 16 µM): 27.3%
- Frequency of dysmorphogenesis: Otic vesicles ([1]; 16 µM): 45.5%
- Frequency of dysmorphogenesis: Subcutaneous blisters ([1]; 16 µM): 45.5%
- Frequency of dysmorphogenesis: Yolk sac ([1]; 16 µM): 63.6%
- Crown-rump length ([1]; 16 μM): 3.1 ± 0.6 mm
- Dysmorphogenic embryos ([1]; 16 μM): 100 ^* %
- Morphological score ([1]; 16 μM): 21.8 ± 6.7
- Somites number ([1]; 16 μM): 19.3 ± 2.4
- Yolk sac circulation (median) ([1]; 16 μM): 1.0 ^*
- postWEC LOAEC ([1]; GD 9.5-11.5, 48 h): 9 µM
- Plasma concentrations at teratogenic doses [2]: 12.8 ([47]; reviewed and transformed to μM by [16])
- Lethality ([3]; 1 μM, 2-50 hpf): 0%
- Dysmorphogenic embryos ([3]; 1 μM): 0%
- Morphological score ([3]; 1 μM): 36.0 ± 0.0
- Frequency of dysmorphogenesis: Cardiac oedema ([3]; 6µM): 3.3%
- Lethality ([3]; 6 μM, 2-50 hpf): 0%
- Dysmorphogenic embryos ([3]; 6 μM): 3.3%
- Morphological score ([3]; 6 μM): 35.7 ± 0.9
- Frequency of dysmorphogenesis: Cardiac oedema ([3]; 12 µM): 10%
- Lethality ([3]; 12 μM, 2-50 hpf): 0%
- Dysmorphogenic embryos ([3]; 12 μM): 10%
- Morphological score ([3]; 12 μM): 35.5 ± 0.6
- Frequency of dysmorphogenesis: Brain necrosis ([3]; 25µM): 100%
- Frequency of dysmorphogenesis: Cardiac oedema ([3]; 25µM): 100%
- Frequency of dysmorphogenesis: Developmental delay ([3]; 25µM): 100%
- Frequency of dysmorphogenesis: Eye pigmentation ([3]; 25µM): 100%
- Frequency of dysmorphogenesis: Head-body pigmentation ([3]; 25µM): 100%
- Frequency of dysmorphogenesis: Movement ([3]; 25µM): 100%
- Lethality ([3]; 25 μM, 2-50 hpf): 13%
- Dysmorphogenic embryos ([3]; 25 μM): 100% and 100 ^* %
- Morphological score ([3]; 25 μM): 18.0 ± 0.0
- Lethality ([3]; 50 μM, 2-50 hpf): 100% and 100 ^* %
- ZFET LOAEC dysmorphogenesis ([3]; 2-50 hpf): 25 µM
- ZFET LOAEC lethality ([3]; 2-50 hpf): 50 µM
- ZFET LOAEC, in vitro literature ([4]; ref 19): Non observed adverse effects
- ZFET LOAEC, in vitro literature ([4]; ref 20): 6.8 µM
- postWEC LOAEC, in vitro literature [5]: 17.7 [16] μM
